Test results: PubChem BioAssay (NCI)
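Test compounds were applied to cells in 96-well plates for 48 hours at 5 doses. The concentration for 50% growth inhibition is given as GI50. TGI: total growth inhibition.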 Where a SMILES comes first, the peptide text is derived from it. [ ]: non-standard residue; d: D form. The star is where a group is joined. ξ: configuration not given here. ξF = NC(Cc1ccccc1)C(=O)O; Cbz = O=C(OCc1ccccc1)*; Aib = CC(C)(N)C(=O)O

How the values were obtained:
Experiment in all cases: inhibition of tumour cell growth, NCI panel, 48 h
[1] = tested on: SK-MEL-28 melanoma
[2] = tested on: HT29 colon
[3] = tested on: RPMI-8226 leukemia
[4] = tested on: PC-3 prostate
[5] = tested on: RXF 393 renal
[6] = tested on: MDA-MB-231 breast
[7] = tested on: 786-0 renal
[8] = tested on: SF-539 CNS
[9] = tested on: HCC-2998 colon
[10] = tested on: MOLT-4 leukemia

Q: For CN(CC(=O)O)Cc1c(O)c(Cl)cc(Cl)c1Cl, which TGI [1] is on record?
A: 97.4 µM

Q: What about the TGI [2] of the same compound?
A: > 100 µM

Q: What about the TGI [3] of the same compound?
A: > 100 µM

Q: And the TGI [4]?
A: > 100 µM

Q: And the TGI [5]?
A: > 100 µM

Q: And the TGI [6]?
A: > 100 µM

Q: And the TGI [7]?
A: > 100 µM

Q: What about the TGI [8] of the same compound?
A: > 100 µM

Q: How did the TGI [1] turn out when NC(=O)C1CCCN1C(=O)C(N)Cc1ccccc1 (stereo not drawn) (H-Phe-Pro-NH2; configuration not given here) was run?
A: > 100 µM

Q: What about the TGI [2] of the same compound?
A: > 100 µM

Q: What about the TGI [3] of the same compound?
A: > 100 µM

Q: And the TGI [4]?
A: > 100 µM

Q: And the TGI [9]?
A: > 100 µM

Q: What about the TGI [6] of the same compound?
A: > 100 µM

Q: What about the TGI [10] of the same compound?
A: > 100 µM

Q: Which results are given for Cc1cc2c(c(O)c1-c1c(C)cc(O)c3c1C(=O)C=CC3=O)C(=O)C=CC2=O?
A: TGI [3]: 2.29 µM; TGI [4]: 19 µM; TGI [5]: 2.5 µM; TGI [9]: 10.1 µM; TGI [6]: 4.88 µM; TGI [10]: 0.375 µM; TGI [8]: 31.7 µM

Q: How did the GI50 [1] turn out when O=C1c2cccnc2C(=O)c2c1c(C(=O)OCCN1CCCCC1)c1ccccn21 was run?
A: 0.21 µM

Q: And the TGI [1]?
A: 2.19 µM

Q: What about the GI50 [2] of the same compound?
A: 0.12 µM

Q: What about the TGI [2] of the same compound?
A: 1.71 µM

Q: What about the GI50 [3] of the same compound?
A: 0.119 µM

Q: And the TGI [3]?
A: 0.95 µM

Q: What about the GI50 [4] of the same compound?
A: 0.16 µM

Q: And the TGI [4]?
A: 9.59 µM

Q: What about the GI50 [5] of the same compound?
A: 0.0615 µM

Q: And the TGI [5]?
A: 0.235 µM

Q: And the GI50 [9]?
A: 0.0788 µM

Q: And the TGI [9]?
A: 1.57 µM

Q: And the GI50 [6]?
A: 0.731 µM

Q: And the TGI [6]?
A: 12.6 µM

Q: What about the GI50 [10] of the same compound?
A: 0.162 µM

Q: What about the TGI [10] of the same compound?
A: 2.21 µM

Q: What about the GI50 [8] of the same compound?
A: 0.0174 µM

Q: And the TGI [8]?
A: 0.155 µM

Q: With COc1ccccc1CC(C)N (stereo not drawn) as the compound, how does the TGI [1] read?
A: > 100 µM

Q: What about the TGI [2] of the same compound?
A: > 100 µM

Q: And the TGI [3]?
A: > 100 µM

Q: What about the TGI [5] of the same compound?
A: > 100 µM

Q: And the TGI [9]?
A: > 100 µM

Q: What about the TGI [7] of the same compound?
A: > 100 µM

Q: And the TGI [8]?
A: > 100 µM

Q: What does the source list for C=C(C)[C@@H]1CCC2=C[C@H](C/C(C)=C\C3=CC(C)=C(O3)[C@H]1O)OC2=O?
A: TGI [1]: > 100 µM; TGI [3]: > 100 µM; TGI [4]: > 100 µM; TGI [5]: > 100 µM; TGI [9]: > 100 µM; TGI [6]: 98.8 µM; TGI [7]: > 100 µM; TGI [10]: > 100 µM; TGI [8]: > 100 µM

Q: Which results are given for CCCCCCCCCCCCCCCCCCNc1ccn(C2OC(CO)C(OP(=O)(O)OCC(O)COP(=O)(O)OCC3OC(n4cc(F)c(NCCCCCCCCCCCCCCCCCC)nc4=O)CC3O)C2O)c(=O)n1 (stereo not drawn)?
A: TGI [1]: > 50 µM; TGI [2]: > 50 µM; TGI [3]: > 50 µM; TGI [4]: > 50 µM; TGI [9]: > 50 µM; TGI [6]: > 50 µM; TGI [7]: > 50 µM; TGI [8]: > 50 µM

Q: Which TGI [1] does the source give for O=C(NCCC1CN(C(=O)OCc2ccccc2)c2ccccc21)OCc1ccccc1 (stereo not drawn) here?
A: > 100 µM

Q: And the TGI [2]?
A: > 100 µM

Q: What about the TGI [3] of the same compound?
A: > 100 µM

Q: What about the TGI [4] of the same compound?
A: > 100 µM

Q: And the TGI [5]?
A: > 100 µM

Q: What about the TGI [9] of the same compound?
A: > 100 µM

Q: What about the TGI [6] of the same compound?
A: > 100 µM

Q: And the TGI [7]?
A: > 100 µM

Q: What about the TGI [10] of the same compound?
A: > 100 µM

Q: Which results are given for CC1C(=O)CC(c2cccs2)N(N=O)C1c1cccs1 (stereo not drawn)?
A: TGI [1]: > 100 µM; TGI [2]: > 59.1 µM; TGI [3]: 67.2 µM; TGI [5]: 81.1 µM; TGI [9]: > 100 µM; TGI [10]: 73.7 µM; TGI [8]: > 100 µM

Q: How did the TGI [1] turn out when CCCCCCCCCCCCCC1=C(O)C(=O)C(CC2=C(O)C(=O)C(CCCCCCCCCCCCC)=C(O)C2=O)=C(O)C1=O was run?
A: > 100 µM

Q: What about the TGI [2] of the same compound?
A: > 100 µM

Q: And the TGI [4]?
A: > 100 µM

Q: And the TGI [5]?
A: 32.2 µM

Q: And the TGI [6]?
A: > 100 µM

Q: And the TGI [7]?
A: > 100 µM

Q: And the TGI [8]?
A: > 100 µM

Q: For COc1ccc(-c2nc3c(nc2-c2ccc(OC)cc2)C(N)=NS(=O)(=O)N3)cc1, which TGI [1] is on record?
A: > 100 µM

Q: And the TGI [2]?
A: > 100 µM

Q: What about the TGI [3] of the same compound?
A: > 100 µM

Q: What about the TGI [5] of the same compound?
A: > 100 µM

Q: And the TGI [9]?
A: > 100 µM

Q: What about the TGI [7] of the same compound?
A: > 100 µM

Q: And the TGI [10]?
A: > 100 µM

Q: What about the TGI [8] of the same compound?
A: > 100 µM

Q: What does the source list for Cc1[nH]c(=O)[nH]c(=O)c1/C=C/C(=O)NC(CO)CS(=O)CS(C)=O (stereo not drawn)?
A: TGI [1]: 69.8 µM; TGI [2]: 515 µM; TGI [3]: 183 µM; TGI [5]: 125 µM; TGI [9]: 53.8 µM; TGI [10]: 66.5 µM; TGI [8]: 51.5 µM

Q: With CCOC(=O)CNC(=O)C(Cc1ccccc1)NC(=O)C(C)(C)NC(=O)OCc1ccccc1 (stereo not drawn) (Cbz-[Aib]-[ξF]-Gly-OEt) as the compound, how does the TGI [1] read?
A: 33.2 µM

Q: And the TGI [2]?
A: > 100 µM

Q: And the TGI [3]?
A: > 100 µM

Q: What about the TGI [4] of the same compound?
A: > 100 µM

Q: What about the TGI [9] of the same compound?
A: > 100 µM

Q: And the TGI [6]?
A: > 100 µM

Q: And the TGI [10]?
A: > 100 µM

Q: What does the source list for CCOC(=O)Cn1c2ccc(Br)cc2c2nc3ccccc3nc21?
A: TGI [1]: > 100 µM; TGI [2]: > 100 µM; TGI [3]: > 100 µM; TGI [4]: > 100 µM; TGI [5]: > 100 µM; TGI [6]: > 100 µM; TGI [7]: > 100 µM; TGI [10]: > 100 µM

Q: For C[Si](C)(C)c1ccc(-c2c3ccc(-c4cc(Br)cc(Br)c4)nc3nc3nc(-c4cc(Br)cc(Br)c4)ccc23)cc1, which TGI [1] is on record?
A: > 100 µM

Q: What about the TGI [3] of the same compound?
A: > 100 µM

Q: What about the TGI [4] of the same compound?
A: > 100 µM

Q: And the TGI [9]?
A: > 100 µM

Q: What about the TGI [6] of the same compound?
A: > 100 µM

Q: What about the TGI [7] of the same compound?
A: > 100 µM

Q: CC(C)CCCC(C)[C@H]1CC[C@H]2n3c(nc4ccccc43)CCC[C@]12C (stereo partly drawn) was tested. Which TGI [1] did it give?
A: 34.3 µM

Q: And the TGI [2]?
A: 26.4 µM

Q: What about the TGI [3] of the same compound?
A: 33.9 µM

Q: What about the TGI [4] of the same compound?
A: 42.9 µM

Q: And the TGI [5]?
A: 33.5 µM

Q: What about the TGI [6] of the same compound?
A: 33 µM

Q: What about the TGI [7] of the same compound?
A: 37.3 µM

Q: What about the TGI [10] of the same compound?
A: 35.9 µM

Q: And the TGI [8]?
A: 35.2 µM

Q: With CCOC(=O)CCC(C(=O)OCC)n1nc2ccc(Nc3c(C)[n+]([O-])c4cc(F)c(OCC)cc4[n+]3[O-])cc2n1 (stereo not drawn) as the compound, how does the TGI [2] read?
A: > 100 µM

Q: What about the TGI [3] of the same compound?
A: > 100 µM

Q: What about the TGI [4] of the same compound?
A: > 100 µM

Q: What about the TGI [5] of the same compound?
A: 32.5 µM

Q: And the TGI [9]?
A: > 100 µM

Q: And the TGI [7]?
A: 71.5 µM

Q: And the TGI [10]?
A: > 100 µM

Q: What about the TGI [8] of the same compound?
A: 63.1 µM

Q: What does the source list for CON(C)C(=O)[C@H]1C[C@@]1(C)CO?
A: TGI [1]: > 100 µM; TGI [2]: > 100 µM; TGI [4]: > 100 µM; TGI [5]: > 100 µM; TGI [9]: > 100 µM; TGI [6]: > 100 µM; TGI [7]: > 100 µM; TGI [10]: > 100 µM
